# In publication PMC3592416 (Nucleic Acids Research, 2012):
# Experiments:
# PoTC [1] = target: T1, PoTC (Saccharomyces cerevisiae, UniProt P02406+P0CX27); assay: Complete disassembly of PoTC by eEF3/ATP; format: biochemical; conditions: for inhibition of eEF3-dependent disassembly reaction: 1 mM antibiotic
# PoTC [2] = target: T1, PoTC; assay: Release of mRNA from PoTC; format: biochemical; conditions: for effect of Mg2+ on the inhibitory effect (mRNA release): 100 µM antibiotic, various concentrations of MgCl2
# eEF3/ribosomes = assay: ATP hydrolysis assay; format: biochemical, Saccharomyces cerevisiae; conditions: for amount of ATPase inhibited: total ATP hydrolysis 97 pmol
# translocation = conditions: cited from earlier work
# vacant ribosomes = conditions: read-out: Kd with vacant ribosomes; cited from earlier work
# PoTC [3] = target: T1, PoTC; conditions: inhibitor alone, without eEF2/GTP; cited from earlier work
# yeast ribosomal subunits = assay: Induction of subunit association; format: biochemical; conditions: 1 mM PAR, 5 s at 30°C after disassembly
# PoTC [4] = target: T1, PoTC; conditions: cited from earlier work
# [5] = 1 mM antibiotic, 50 µM ATP, 0.5 µM eEF3, 1 min 30°C
# T1 sequence (P02406 2-149): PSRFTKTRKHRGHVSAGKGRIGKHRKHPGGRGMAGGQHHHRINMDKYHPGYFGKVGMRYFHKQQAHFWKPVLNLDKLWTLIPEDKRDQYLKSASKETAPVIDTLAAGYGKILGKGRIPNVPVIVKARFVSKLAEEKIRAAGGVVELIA
# T1 sequence (P0CX27 2-106): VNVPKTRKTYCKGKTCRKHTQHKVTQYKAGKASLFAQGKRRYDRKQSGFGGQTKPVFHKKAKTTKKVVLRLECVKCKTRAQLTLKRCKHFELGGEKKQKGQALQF
# T1 sequence (P16521 2-1044 partner): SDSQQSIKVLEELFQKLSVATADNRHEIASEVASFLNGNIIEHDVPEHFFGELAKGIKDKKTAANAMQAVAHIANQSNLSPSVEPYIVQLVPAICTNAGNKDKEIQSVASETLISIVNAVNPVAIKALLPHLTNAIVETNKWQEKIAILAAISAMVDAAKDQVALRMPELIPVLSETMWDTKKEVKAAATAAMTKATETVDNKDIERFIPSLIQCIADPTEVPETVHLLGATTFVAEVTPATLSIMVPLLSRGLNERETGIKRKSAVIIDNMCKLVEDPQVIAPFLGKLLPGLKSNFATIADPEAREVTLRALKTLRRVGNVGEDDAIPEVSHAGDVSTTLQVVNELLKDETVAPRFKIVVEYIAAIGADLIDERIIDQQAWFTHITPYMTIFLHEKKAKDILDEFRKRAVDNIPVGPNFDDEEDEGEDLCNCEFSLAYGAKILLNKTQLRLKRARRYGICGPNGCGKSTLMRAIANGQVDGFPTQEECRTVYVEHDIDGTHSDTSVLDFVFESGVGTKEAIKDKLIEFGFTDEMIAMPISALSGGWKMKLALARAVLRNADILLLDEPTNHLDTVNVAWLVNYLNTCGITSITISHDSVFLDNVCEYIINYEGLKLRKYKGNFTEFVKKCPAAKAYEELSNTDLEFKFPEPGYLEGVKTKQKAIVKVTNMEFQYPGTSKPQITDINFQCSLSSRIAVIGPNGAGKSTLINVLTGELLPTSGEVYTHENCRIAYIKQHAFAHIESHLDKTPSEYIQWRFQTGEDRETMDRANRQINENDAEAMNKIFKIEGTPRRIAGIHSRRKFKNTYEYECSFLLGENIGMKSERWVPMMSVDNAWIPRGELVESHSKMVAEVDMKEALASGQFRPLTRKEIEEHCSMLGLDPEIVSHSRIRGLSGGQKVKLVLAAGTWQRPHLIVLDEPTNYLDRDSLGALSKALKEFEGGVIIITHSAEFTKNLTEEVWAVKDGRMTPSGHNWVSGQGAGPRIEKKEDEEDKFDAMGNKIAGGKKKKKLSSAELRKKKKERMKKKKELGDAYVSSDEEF
SMILES,inhibition of eEF3-dependent disassembly reaction (PoTC [1]),effect of Mg2+ on the inhibitory effect (mRNA release) (PoTC [2]),inhibition of ATP hydrolysis by eEF3/ribosomes (eEF3/ribosomes; [5]) [%],amount of ATPase inhibited (eEF3/ribosomes; 1 mM antibiotic) [pmol],inhibition of eEF3-dependent release of mRNA from PoTC (PoTC [3]),also measured
"C[C@@H]1C[C@@H]([C@H](O)CC2CC(=O)NC(=O)C2)C(=O)[C@@H](C)C1 [CHX, cycloheximide]",almost complete maximum inhibition,remarkable stimulatory effect,~20,22,,"mode of inhibition with respect to ATP (PoTC [2]; Lineweaver-Burk, mRNA release): non-competitive inhibitor; mode of inhibition with respect to eEF3 (PoTC [2]; Lineweaver-Burk, mRNA release): non-competitive inhibitor; IC50 (translocation; read-out: IC50 for the inhibition of translocation): 1.2 µM; Kd (vacant ribosomes): 15 µM"
"CC(=O)O[C@H]1C[C@@]2(C)[C@@H](C[C@@H](O)[C@H]3[C@@]4(C)CC[C@@H](O)[C@@H](C)[C@@H]4CC[C@@]32C)/C1=C(\CCC=C(C)C)C(=O)O [FA, fusidic acid]",,,,,only slightly inhibit,
"C/C(=C\[C@H](C)C(=O)C[C@H](O)CC1CC(=O)NC(=O)C1)[C@@H]1OC(=O)/C=C/CC/C=C/C=C\[C@@H]1C [LTM, lactimidomycin]",,,,,,concentration at which maximum inhibition was obtained (PoTC [1]; three disassembly reactions): 100 µM; concentration which inhibits translocation almost completely (translocation): 200 µM
"NC[C@@H]1O[C@H](O[C@H]2[C@@H](O)[C@H](O[C@@H]3[C@@H](O)[C@H](N)C[C@H](N)[C@H]3O[C@H]3O[C@H](CO)[C@@H](O)[C@H](O)[C@H]3N)O[C@@H]2CO)[C@H](N)[C@@H](O)[C@@H]1O [PAR, paromomycin]",almost complete maximum inhibition,not significantly influenced,~20,22,,association of ribosomal subunits (yeast ribosomal subunits): re-associated yeast ribosomal subunits
"CO[C@H]1[C@@H](O)[C@H](O)[C@H](OC[C@@]23C[C@@H]4[C@H](C)CC[C@H]4[C@@]4(C=O)CC2C=C(C(C)C)[C@@]34C(=O)O)O[C@@H]1C [SOR, sordarin]",,,,,only slightly inhibit,
[O]=[V]([O-])([O-])[O-] [vanadate],,,,,,effect on the disassembly of PoTC (PoTC [4]): without inhibiting; amount of ATP hydrolysis inhibited (eEF3/ribosomes; vanadate positive control): 52 pmol; inhibition of ATP hydrolysis by eEF3/ribosomes (eEF3/ribosomes; vanadate positive control): about 50%
